Measurements from PMC10641831 (Journal of Medicinal Chemistry, 2023).
“Also recorded” adds a separate entry of the source.

Key:
[1] = system: pCREB; experiment: Immunostaining and confocal microscopy: pCREB activation in HEK293 cells overexpressing V1bR-GFP; type: cell-based, human; settings: 1 nM, 60 min, normalized to negative control; VP 10 nM positive control
Source text: (§1) The most promising photoprobe, 12, with a 5.3-fold photoswitch activity window at V1bR, was selected for more comprehensive in vitro experiments to validate its application scope for biological and neurological studies. As a model system, we used HEK293 cells overexpressing GFP-tagged V1bR, where receptor activation via pCREB (phosphorylated cAMP response element binding protein) and V1bR-GFP internalization can be followed through immunostaining and confocal scanning microscopy.
(§2) HEK293 cells stably expressing a C-terminal-conjugated GFP human V1bR were cultured in a full growth medium consisting of DMEM/GlutaMAX (Gibco, Thermo Fisher), containing 0.5 mg/mL G-418 (Gibco, Thermo Fisher), 1 mM sodium pyruvate (Gibco, Thermo Fisher), and 10% fetal bovine serum (Gibco, Thermo Fisher). […]
(§3) Coverslips were first incubated with 5% normal donkey serum (Jackson Immuno Research), 2% bovine serum albumin (Sigma-Aldrich, Merck), and 0.2% Triton X-100 (Sigma-Aldrich, Merck) to block nonspecific protein binding. […] Images were analyzed with ZEN pro (Zeiss) ImageJ 1.52a and collated in CorelDraw 2019. To determine pCREB activation, the fluorescence was normalized to the negative control (cells treated with a serum-free medium without G-418 instead of 12), as already minor receptor interactions can lead to pCREB activity in overexpression systems.

[2] = system: GFP-conjugated human V1bR; experiment: Immunostaining and confocal microscopy: V1bR-GFP activation/internalization in HEK293 cells; type: cell-based; settings: 1 nM, 60 min
Source text: as §1, §2, §3

[3] = target: human oxytocin receptor (human) (UniProt P30559)
Sequence of human oxytocin receptor (human) (P30559 whole entry): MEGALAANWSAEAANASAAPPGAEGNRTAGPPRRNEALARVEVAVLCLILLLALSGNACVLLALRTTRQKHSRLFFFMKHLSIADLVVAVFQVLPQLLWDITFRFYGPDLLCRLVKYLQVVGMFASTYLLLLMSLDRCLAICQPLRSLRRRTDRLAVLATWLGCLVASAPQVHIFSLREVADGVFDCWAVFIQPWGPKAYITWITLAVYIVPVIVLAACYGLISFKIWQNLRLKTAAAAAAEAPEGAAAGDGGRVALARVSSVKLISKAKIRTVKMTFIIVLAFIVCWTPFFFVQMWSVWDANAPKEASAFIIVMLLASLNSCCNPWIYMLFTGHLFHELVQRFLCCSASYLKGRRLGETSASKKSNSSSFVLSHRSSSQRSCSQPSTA

Sequence of Oxytocin (P01178 whole entry, looked up): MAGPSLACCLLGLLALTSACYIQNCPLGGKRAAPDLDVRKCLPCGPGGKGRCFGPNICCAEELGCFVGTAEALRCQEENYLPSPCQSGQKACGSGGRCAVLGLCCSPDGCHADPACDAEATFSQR

Row | Compound | pCREB activation (CREB phosphorylation) [1] | V1bR-GFP receptor activation / internalization [2] | Emax (efficacy, reference), IP-One accumulation, HEK293 cells expressing hOTR [3] [%]
1 | N=C(N)NCCC[C@H](NC(=O)[C@@H]1CCCN1C(=O)[C@@H]1CSSC[C@H](N)C(=O)N[C@@H](Cc2ccc(O)cc2)C(=O)N[C@@H](Cc2ccc(/N=N/c3ccccc3)cc2)C(=O)N[C@@H](CCC(N)=O)C(=O)N[C@@H](CC(N)=O)C(=O)N1)C(=O)NCC(N)=O [E-12] | inactive | did not cause any visible receptor activation or internalization; also recorded: did not induce V1bR-GFP internalization; also recorded: inactive | 
2 | N=C(N)NCCC[C@H](NC(=O)[C@@H]1CCCN1C(=O)[C@@H]1CSSC[C@H](N)C(=O)N[C@@H](Cc2ccc(O)cc2)C(=O)N[C@@H](Cc2ccc(/N=N\c3ccccc3)cc2)C(=O)N[C@@H](CCC(N)=O)C(=O)N[C@@H](CC(N)=O)C(=O)N1)C(=O)NCC(N)=O [Z-12] | significantly (P < 0.001) activated pCREB at levels comparable to VP; also recorded: significantly induced CREB phosphorylation | activated V1bR-GFP; also recorded: induced V1bR-GFP internalization | 
3 | Oxytocin (from UniProt P01178 20-28) (peptide) |  |  | 100
